In brackets after ≈: the same amount, converted by molar mass. Counter-ions that a name gives are not always drawn. Like-named read-outs stand apart in the source and are kept apart here.
Assays:
[1] = system: P-388 leukemia; experiment: Antitumor activity against P-388 leukemia, increase life span (Test Example 1); format: in vivo, BDF1 mouse (murine); conditions: days 1, 5 and 9
Source text: The compounds of the present invention are effective against experimental murine tumors such as P-388 leukemia, L-1210 leukemia, B-16 melanoma, M-5076 sarcoma, Colon 38, Colon 26 and Lewis lung carcinoma. On the other hand, certain in vivo test systems and protocols have been developed by National Cancer Institute for testing compounds to determine the effectiveness of test compounds as antineoplastic agents. These have been reported in "Cancer Chemotherapy Reports", Part III, Vol. 3, No. 2 (1972) written by Deran, Greenberg, MacDonald, Schumacher and Abott. P-388 leukemia is the most standard experimental murine tumor, and it is known that many of drugs effective against human tumor are also effective against this leukemia. Generally, the effectiveness of a drug for these experimental murine tumors is evaluated by the extended median survival time of a test mouse group to which a test drug is administered on the basis of the median survival time of a control mouse group to which no drug is administered. If the extended median survival time is at least 25-30% longer, the administered drug is determined to be effective.
1×10^6 of P-388 leukemia cells per mouse were intraperitoneally transplanted into BDF1 mouse. Each formulation was intraperitoneally or intravenously administered on the 1st, 5th and 9th days after the transplantation.
The increase life span of each group was determined by comparing the median survival time (days) of a test group to which a test drug is administered and the median survival time (days) of a control group to which physiological saline was administered at the same part as in the case of the test group. Among the tested drug formulations, the compounds of the present invention were formulated in accordance with the below-mentioned Formulation Example 1, and the comparative compounds as shown in Table 8 were formulated in accordance with the below-mentioned Formulation Example 2.
(Note) * Increase life span is calculated by the following equation:
Increase life span % (ILS)=(a/b×100)-100 a: Median survival days of test group of drug administration b: Median survival days of control group of physiological saline administration 0.125 part by weight of the above mentioned Compound No. 1 was dissolved in 5 parts by weight of N,N-dimethylacetamide and 5 parts by weight of polyoxyethylene sorbitan monooleate, and 90 parts by weight of physiological saline was added thereto to form a solution formulation in an agate mortar.
0.125 part by weight of Comparative Compound No. 1 was dissolved in 5 parts by weight of N,N-dimethylacetamide and 5 parts by weight of polyoxyethylene sorbitan monooleate, and 90 parts by weight of physiological saline was added thereto to form a suspension formulation in an agate mortar.

[2] = Solubility in water-soluble solvent by HPLC (Test Example 2); format: physicochemical
Description: About 2 mg of each of the compounds of the present invention shown in the following Table 7 was accurately weighed, and was completely dissolved in 2 ml of N,N-dimethylacetamide. The content was then transferred into a 10 ml-measuring flask, and its volume was made constant with acetonitrile. 3 ml of the resultant solution was placed in a 50 ml-measuring flask, and its volume was adjusted constant with acetonitrile to prepare a standard solution. Next, about 2 mg of each of the compounds of the present invention was weighed, and was placed in an agate mortar. Thereafter, 1.5 ml of a test liquid (water-soluble solvent) was added thereto, and the content was mixed for 5 minutes. A suspension thus obtained, was transferred into a 1.5 ml-microtube, and was centrifuged at 15,000 r.p.m. for 10 minutes. The supernatant fluid was placed in a 1 ml-microtube, and was centrifuged again under the same conditions. 0.1 ml of the supernatant fluid thus obtained was diluted with 0.9 ml of acetonitrile to prepare a measuring liquid. The above standard solution and the measuring liquid were analyzed by high pressure liquid chromatography (HPLC), and their solubilities were measured by absolute calibration curve method.
Column: Nucleosil 5 C18, diameter=4.6 mm, length=250 mm
Mobile phase: acetonitrile/water/acetic acid=60/40/0.1
Detection: UV 265 nm, Column temperature: 40° C.,
Sensitivity: 0.005 AUFS or 0.16 AUFS,

[3] = Acute toxicity; format: in vivo; conditions: mouse, in vivo; BDF1 mice, intravenous, Formulation Example 1; read-out: acute toxicity value (LD 50)
Description: (§1) None of BDF1 mice were dead by intravenously administering each formulation of Compound Nos. 1 to 9, 20, 49 and 53 of the present invention prepared in accordance with Formulation Example 1 in an amount of 25 mg/kg mouse (on the basis of compound).
(§2) 0.125 part by weight of the above mentioned Compound No. 1 was dissolved in 5 parts by weight of N,N-dimethylacetamide and 5 parts by weight of polyoxyethylene sorbitan monooleate, and 90 parts by weight of physiological saline was added thereto to form a solution formulation in an agate mortar.

[4] = system: BDF1 mice; experiment: Acute toxicity; format: in vivo; conditions: intravenous, 25 mg/kg mouse, Formulation Example 1
Description: as §1, §2

[5] = Mus musculus, P388, ip, intraperitoneal
[6] = Mus musculus, P388, ip, intraperitoneal, 12.5 mg/kg
[7] = Mus musculus, P388, ip, intraperitoneal, 25 mg/kg
[8] = distilled water, water, read-out: Solubility, test solution A
[9] = Mus musculus, P388, intravenous, 12.5 mg/kg
[10] = Mus musculus, P388, intravenous, 25 mg/kg
[11] = 10% peg 400 aqueous, organic solvent or mixture, 10% polyethylene glycol #400 aqueous solution, read-out: Solubility, test solution C
[12] = physiological saline, read-out: Solubility, test solution B
[13] = Mus musculus, P388, intravenous

SMILES: Cc1cc(NC(=O)NC(=O)c2ccccc2N)ccc1Oc1ncc(Cl)cn1 [compound 2, reference compound]
- ILS at 6.25 mg/kg [1, 5]: 34%
- ILS at 12.5 mg/kg [1, 6]: 83%
- ILS at 25 mg/kg [1, 7]: 148%
- solubility [2, 8]: 0.8 µg/mL (≈ 0.00201 mM)

SMILES: Cc1cc(NC(=O)NC(=O)c2ccccc2NC(=O)CN(C)C)ccc1Oc1ncc(Br)cn1 [compound 20, N-[4-(5-bromo-2-pyrimidinyloxy)-3-methylphenyl]-N'-[2-(N,N-dimethylglycyl)amino]benzoylurea]
- ILS at 12.5 mg/kg [1, 9]: 36%
- ILS at 25 mg/kg [1, 10]: 155%
- solubility [2, 11]: 20000 µg/mL (≈ 37.9 mM)
- solubility [2, 8]: 19000 µg/mL (≈ 36 mM)
- solubility [2, 12]: 3000 µg/mL (≈ 5.69 mM)
- LD50 [3]: ≥ 25 mg/kg
- BDF1 mice dead [4]: None

SMILES: Nc1ccccc1C(=O)NC(=O)Nc1ccc(Oc2ncc(Br)cn2)c(Cl)c1 [compound 1, reference compound]
- ILS at 6.25 mg/kg [1, 5]: 50%
- ILS at 12.5 mg/kg [1, 6]: 107%
- Increase life span (ILS %) ([1]; intraperitoneal, 25 mg/kg): Tox
- solubility [2, 11]: < 0.05 µg/mL
- solubility [2, 8]: < 0.05 µg/mL
- solubility [2, 12]: 0.06 µg/mL (≈ 0.00013 mM)

SMILES: CCc1cc(NC(=O)NC(=O)c2ccccc2N)ccc1Oc1ncc(Br)cn1 [compound 3, reference compound]
- ILS at 6.25 mg/kg [1, 5]: 26%
- ILS at 12.5 mg/kg [1, 6]: 26%
- ILS at 25 mg/kg [1, 7]: 99%
- solubility [2, 8]: < 0.1 µg/mL

SMILES: CNCC(=O)Nc1ccccc1C(=O)NC(=O)Nc1ccc(Oc2ncc(Br)cn2)c(C)c1 [compound 53, N-[4-(5-bromo-2-pyrimidinyloxy)-3-methylphenyl]-N'-(2-sarcosylamino)benzoylurea]
- ILS at 10 mg/kg ([1]; Mus musculus, P388, intravenous, 10 mg/kg (footnote d)): > 30%
- ILS at 20 mg/kg ([1]; Mus musculus, P388, intravenous, 20 mg/kg (footnote c)): > 50%
- solubility [2, 8]: 5000 µg/mL (≈ 9.74 mM)
- solubility [2, 12]: 120 µg/mL (≈ 0.234 mM)
- LD50 [3]: ≥ 25 mg/kg
- BDF1 mice dead [4]: None

SMILES: CN(C)CC(=O)Nc1ccccc1C(=O)NC(=O)Nc1ccc(Oc2ncc(Br)cn2)c(Cl)c1 [Compound No. 2, N-[4-(5-bromo-2-pyrimidinyloxy)-3-chlorophenyl]-N'-[2-(N,N-dimethylglycyl)amino]benzoylurea hydrochloride]
- ILS at 6.25 mg/kg [1, 13]: 24%
- ILS at 12.5 mg/kg [1, 9]: 51%
- ILS at 25 mg/kg [1, 10]: 143%
- solubility [2, 11]: > 4000 µg/mL
- solubility [2, 8]: 2500 µg/mL
- solubility [2, 12]: 550 µg/mL
- LD50 [3]: ≥ 25 mg/kg

SMILES: NCC(=O)NCC(=O)Nc1ccccc1C(=O)NC(=O)Nc1ccc(Oc2ncc(Br)cn2)c(Cl)c1 [compound 8]
- ILS at 12.5 mg/kg [1, 9]: 90%
- ILS at 25 mg/kg [1, 10]: 243%
- solubility [2, 11]: 2100 µg/mL (≈ 3.64 mM)
- solubility [2, 8]: 1800 µg/mL (≈ 3.12 mM)
- solubility [2, 12]: 70 µg/mL (≈ 0.121 mM)
- LD50 [3]: ≥ 25 mg/kg

SMILES: NCC(=O)Nc1ccccc1C(=O)NC(=O)Nc1ccc(Oc2ncc(Cl)cn2)c(C(F)(F)F)c1 [compound 6]
- ILS at 6.25 mg/kg [1, 13]: 60%
- ILS at 12.5 mg/kg [1, 9]: 138%
- solubility [2, 11]: 1900 µg/mL (≈ 3.73 mM)
- solubility [2, 8]: 1400 µg/mL (≈ 2.75 mM)
- solubility [2, 12]: 70 µg/mL (≈ 0.138 mM)
- LD50 [3]: ≥ 25 mg/kg

SMILES: Nc1ccccc1C(=O)NC(=O)Nc1ccc(Oc2ncc(Cl)cn2)c(C(F)(F)F)c1 [compound 4, reference compound]
- ILS at 6.25 mg/kg [1, 5]: 71%
- Increase life span (ILS %) ([1]; intraperitoneal, 12.5 mg/kg): Tox
- Increase life span (ILS %) ([1]; intraperitoneal, 25 mg/kg): Tox
- solubility [2, 8]: 0.4 µg/mL (≈ 0.000885 mM)

SMILES: Cc1cc(NC(=O)NC(=O)c2ccccc2NC(=O)CN)ccc1Oc1ncc(Br)cn1 [Compound No. 7, N-[4-(5-bromo-2-pyrimidinyloxy)-3-methylphenyl]-N'-(2-glycylamino)benzoylurea]
- ILS at 6.25 mg/kg [1, 13]: 50%
- ILS at 12.5 mg/kg [1, 9]: 105%
- ILS at 25 mg/kg [1, 10]: 143%
- solubility [2, 11]: 3900 µg/mL (≈ 7.81 mM)
- solubility [2, 8]: > 2300 µg/mL
- solubility [2, 12]: 380 µg/mL (≈ 0.761 mM)
- LD50 [3]: ≥ 25 mg/kg

SMILES: C[C@H](N)C(=O)Nc1ccccc1C(=O)NC(=O)Nc1ccc(Oc2ncc(Br)cn2)c(Cl)c1 [Compound No. 3]
- ILS at 6.25 mg/kg [1, 13]: 10%
- ILS at 12.5 mg/kg [1, 9]: 70%
- ILS at 25 mg/kg [1, 10]: 134%
- solubility [2, 11]: 3700 µg/mL (≈ 6.93 mM)
- solubility [2, 8]: 2800 µg/mL (≈ 5.25 mM)
- solubility [2, 12]: 320 µg/mL (≈ 0.6 mM)
- LD50 [3]: ≥ 25 mg/kg

SMILES: NCC(=O)Nc1ccccc1C(=O)NC(=O)Nc1ccc(Oc2ncc(Br)cn2)c(Cl)c1 [Compound No. 1, N-[4-(5-bromo-2-pyrimidinyloxy)-3-chlorophenyl]-N'-(2-glycylamino)benzoylurea hydrochloride]
- ILS at 6.25 mg/kg [1, 13]: 12%
- ILS at 12.5 mg/kg [1, 9]: 79%
- ILS at 25 mg/kg [1, 10]: 219%
- solubility [2, 11]: 2100 µg/mL
- solubility [2, 8]: 1200 µg/mL
- solubility [2, 12]: 50 µg/mL
- LD50 [3]: ≥ 25 mg/kg

SMILES: NCC(=O)Nc1ccccc1C(=O)NC(=O)Nc1ccc(Oc2ncc(Cl)cn2)c(Cl)c1 [compound 9]
- ILS at 6.25 mg/kg [1, 13]: 19%
- ILS at 12.5 mg/kg [1, 9]: 86%
- ILS at 25 mg/kg [1, 10]: 152%
- solubility [2, 11]: 1500 µg/mL (≈ 3.16 mM)
- solubility [2, 8]: 1600 µg/mL (≈ 3.37 mM)
- solubility [2, 12]: 160 µg/mL (≈ 0.337 mM)
- LD50 [3]: ≥ 25 mg/kg

SMILES: CSCC[C@H](N)C(=O)Nc1ccccc1C(=O)NC(=O)Nc1ccc(Oc2ncc(Br)cn2)c(Cl)c1 [Compound No. 5]
- ILS at 12.5 mg/kg [1, 9]: 3%
- ILS at 25 mg/kg [1, 10]: 152%
- solubility [2, 11]: 2000 µg/mL (≈ 3.37 mM)
- solubility [2, 8]: 1200 µg/mL (≈ 2.02 mM)
- solubility [2, 12]: 30 µg/mL (≈ 0.0505 mM)
- LD50 [3]: ≥ 25 mg/kg

SMILES: C[C@@H](N)C(=O)Nc1ccccc1C(=O)NC(=O)Nc1ccc(Oc2ncc(Br)cn2)c(Cl)c1 [Compound No. 4]
- ILS at 12.5 mg/kg [1, 9]: 19%
- ILS at 25 mg/kg [1, 10]: 95%
- solubility [2, 11]: 2700 µg/mL (≈ 5.06 mM)
- solubility [2, 8]: 2000 µg/mL (≈ 3.75 mM)
- solubility [2, 12]: 140 µg/mL (≈ 0.262 mM)
- LD50 [3]: ≥ 25 mg/kg

From patent US5399691A, “Substituted benzoylurea derivatives or their salts” (Ishihara Sangyo Kaisha Ltd., priority 1991, dated 1995)
